≈ marks a conversion by molar mass, not a printed value. Where a name gives a salt, the structure may show the parent alone. Read-outs that look alike come from different tables or passages of the source.

One may read the solubility as the dissolved amount per volume that the medium holds. Read a high solubility as much dissolved substance. In general, inhibition refers to the change of the read-out against control, counted positive when it falls.

The procedure of data set [1]: (§1) 15 g is dissolved in 1.2 L of water with 120 mM of sodium hydroxide and extracted with 500 ml ethyl acetate to remove phenol and non acid impurities. The aqueous layer is acidified with concentrated HCl to pH 1.2 and extracted with ethyl acetate 1 L followed by 600 ml. […] Ethyl acetate is removed by adding 100 ml of methanol and evaporating. […] Sample kept at RT.

Data set [2] can be described thus: physchem. As to conditions: for final pH of solutions: in water. On the procedure: as §1
The subject of data set [3] is mouse water toxicity model. Description: Mouse water toxicity model, survival curves. As to conditions: 0.76 mg/kg vs placebo.
Description: Mouse Water Toxicity Model—Survival Curves: The in vivo efficacies of the compounds are tested using the mouse water toxicity model, where a mouse is injected with water at 20% of its body weight. […] The resulting euvolemic hyponatremia rapidly leads to CE, making this a practical model to test an inhibitor of the CNS aquaporin, AQP4b.
The ability of mice to survive H2O toxicity is determined in three experiments using 10-12 mice each (16-19 weak old male/female). Deionized water is prepared for injection with either 0.39 mg/kg phenylbenzamide (placebo) or 0.76 mg/kg with test compound.
Data set [4] has as its system mouse water toxicity model. Description: Mouse water toxicity model, brain volume by MRI.
Description: Mouse Water Toxicity Model—Brain Volume by Magnetic Resonance Imaging (MRI): MRI is used to measure changes in brain volume in response to water shock, using the water toxicity model. As described for the survival and brain water content studies above, mice are injected, IP, with a water bolus alone or water bolus and test compound at 0.76 mg/kg, and changes in brain volume as detected by MRI are monitored. […] High resolution T2-weighted sagittal scans (resolution=0.1 mm×0.1 mm×0.7 mm) of the mouse head are obtained prior to water injection, 5.67 min post water injection, and then every 5.2 minutes until the animal expires from the water loading. Each scan contains twenty-five 0.7 mm contiguous imaging slices of which 14-15 slices contain a portion of the brain. The cross sectional area of the brain in each imaging slice is measured by manual region-of-interest selection using ImageJ. Brain volumes are then calculated for each scan by summing the individual cross sectional brain areas and multiplying by the slice thickness (0.7 mm).
The brain volume by magnetic resonance imaging experiment is also conducted with phenylbenzamide (0.39 mg/kg) and Compound 4 (0.83 mg/kg).
The target of data set [5] is T1, AQP4b (Homo sapiens, UniProt P55087).
T1 construct: expressed in transfected cells
Description: Aquaporin-Mediated Cell Volume Change Assay, CHO-AQP4b cells. In kind it is cell-based. The following applies: read-out: inhibition of rate of shrinking, 10 μM, CHO-AQP4b cells, hypertonic shock. On the procedure:
(§2) Structure activity relationships (SARs) are determined by assaying analogues of selected hits to guide chemistry for the preparation of new molecules to be tested for improved potency. For this iterative process we use a quantitative kinetic assay—the Aquaporin-Mediated Cell Volume Change Assa—in a 96-well multiplate reader. It detects changes in light scattering by a monolayer of CHO cells expressing the desired AQP as they shrink when exposed to hypertonic solution (300 mOsm→530 mOsm). FIG. 1 depicts the aquaporin-mediated cell volume change assay with AQP4 expressing cells (FIG. 1A) and AQP2 expressing cells (FIG. 1B). The cells expressing aquaporins shrink more rapidly than control cells, due to enhanced water flow, which shrinkage can be inhibited by a compound that inhibits the aquaporin.
(§3) In FIG. 1, aquaporin-expressing cells are shown in the presence of DMSO (triangles) or in the presence of the test compound (here, Compound 3) at 10 μM (squares), along with CHO-CD81 expressing control cells in the presence of DMSO (diamonds). Each curve represents an average of 16 wells in the 96-well plate.
(§4) In FIG. 1A, when the AQP4b cells treated with DMSO are exposed to hypertonic shock, the cells show rapid shrinking, giving a rise in light scattering (increasing relative change in absorbance, Abs/Abs0) followed by a decay as cells detach from the plate. […]

Data set [6] has as its system AQP4b. Described as above. The following applies: 10 μM, AQP4 (both splice variants). It counts as cell-based. Here is the method:
as §2, §3, §4

The target of data set [7] is T2, AQP2 (Homo sapiens, UniProt P41181).
T2 construct: expressed in transfected cells
T2 sequence (P41181 1-271): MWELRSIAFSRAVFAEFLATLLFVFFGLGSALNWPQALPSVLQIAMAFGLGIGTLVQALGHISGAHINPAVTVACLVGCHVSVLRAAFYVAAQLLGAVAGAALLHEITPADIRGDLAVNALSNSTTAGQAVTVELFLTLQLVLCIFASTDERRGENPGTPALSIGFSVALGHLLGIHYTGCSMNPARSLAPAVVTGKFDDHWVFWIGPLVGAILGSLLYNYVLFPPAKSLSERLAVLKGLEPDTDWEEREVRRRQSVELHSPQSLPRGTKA
Description: Aquaporin-Mediated Cell Volume Change Assay, CHO-AQP2 cells. In kind it is cell-based. As to conditions: 10 μM. On the procedure: as §2, §3, §4

Data set [8] addresses T3, AQP1 (Homo sapiens, UniProt P29972).
T3 construct: expressed in transfected cells
T3 sequence (P29972 1-269): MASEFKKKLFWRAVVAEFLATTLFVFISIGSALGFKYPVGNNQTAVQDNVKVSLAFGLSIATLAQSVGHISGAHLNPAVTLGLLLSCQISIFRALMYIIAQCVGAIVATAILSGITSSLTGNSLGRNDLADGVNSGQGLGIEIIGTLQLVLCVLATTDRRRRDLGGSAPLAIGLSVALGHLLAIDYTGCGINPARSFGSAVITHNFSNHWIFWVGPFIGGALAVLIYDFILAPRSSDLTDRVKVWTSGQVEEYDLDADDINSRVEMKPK
Description: Aquaporin-Mediated Cell Volume Change Assay, CHO cells expressing AQP1. The following applies: 10 μM. It counts as cell-based. Here is the method:
as §2
(§5) The specificity of the compounds is tested against the most closely related of the 13 known aquaporins: AQP1, AQP2, AQP5 and both splice variants of AQP4 (A and B). A stable CHO cell line is created for each of the above aquaporins and the inhibition of water permeability using the Aquaporin-Mediated Cell Volume Change Assay with 10 μM Compound 3 is tested.

Data set [9] concerns the target T4, AQP5 (Homo sapiens, UniProt P55064).
T4 construct: expressed in transfected cells
Description: Aquaporin-Mediated Cell Volume Change Assay, CHO cells expressing AQP5. In kind it is cell-based. The following applies: 10 μM. Here is the method:
as §2, §5

Data set [10] addresses T5, AQP4 (Homo sapiens, UniProt P55087).
T5 construct: expressed in transfected cells; host or cells: CHO
Description: AQP Inhibition Cell-Based Assay (Table 1).

Data set [11] deals with purified AQP4b (Homo sapiens, UniProt P55087). Description: Hummel-Dryer style binding assay with [3H]-Compound 4. On the procedure: To support the mechanism of action by which phenylbenzamides directly block AQP4, we perform in vitro binding studies using purified AQP4b and Compound 4 radiolabeled with ^3H. Using a Hummel-Dryer style assay, a gel filtration column is equilibratrated with buffer containing detergent, to maintain solubility of AQP4b, and 1 μM [^3H]-Compound 4. AQP4b is diluted to 250 μM in this column buffer and incubated at RT for 30 min. The sample is then applied to the column, fractions collected and the presence of [^3H]-Compound 4 detected by liquid scintillation counting. […] The rise in [^3H]-Compound 4 from a baseline value of 1 μM represents binding to each of these proteins.

For data set [12], the system named is mouse middle cerebral artery occlusion (MCAo) model. Description: MCAo stroke model, survival. It counts as in vivo. As to conditions: at 24 h; 2 mg/kg i.p. loading dose plus 1 mg/ml at 8 μl/h pump, vs saline.
Description: (§6) To mimic this injury in mice, an intraluminal monofilament model of middle cerebral artery occlusion (MCAo) is used. Occlusion is achieved by inserting a surgical filament into the external carotid artery (ECA) and threading it forward into the internal carotid artery (ICA) until the tip blocks the origin of the MCA. […] This technique is used to study a temporary occlusion in which the MCA is blocked for one hour. The filament is then removed allowing reperfusion to occur for 24 hours before the animals brain is imaged using T2-weighted scans in a 9.4T Bruker MRI scanner at the Case Center for Imaging Research (FIG. 10).
Survival—Mice are treated with Compound 5 using a 2 mg/kg i.p. loading dose and 1 mg/ml at 8 μl/h maintenance dose (delivered by an i.p. osmotic pump) of Compound 5, or given saline (controls; n=17) using an identical approach.
The test system is the same in data set [13]. Description: MCAo stroke model, neurological outcome. In kind it is in vivo.
Description: as §6
Neurological Outcome—In the same experiment as above, animals are scored for neurological outcome on a simple 5 point scale described in Manley, G. T. et al., Aquaporin-4 Deletion in Mice Reduces Brain Edema After Acute Water Intoxication and Ischemic Stroke, Nature Medicine, 6, 159-163 (2000).
The test system is the same in data set [14]. Description: MCAo stroke model, cerebral edema (hemispheric brain volume by MRI).
Description: as §6
Cerebral Edema—Mice are given saline or treated with Compound 5 by multi-dosing at 5 mg/kg i.p. every three hours (n=8 per treatment). […] Ipsilateral and contralateral hemispheric volume is measured from the T2-weighted MR images of mice 24 hours post-icus. Relative change in hemispheric volume is calculated as a percent of the difference between ipsilateral brain volume (Vi) and contralateral brain volume (Vc) relative to the contralateral brain volume (Percent Change in Hemispheric Brain Volume=((Vi−Vc)/Vc)×100%.
Data set [15] in a line: Bioconversion of prodrug salt to Compound 1 in mouse plasma in vitro. It counts as in vitro ADME. The following applies: 20° C.
For data set [16] the following is noted: mice injected IP.
Description: Measurements are taken at 15 minutes and 24 hours after a 10 mg/kg i.p. loading dose and 1 mg/ml at 8 μl/h maintenance dose (delivered by an Alzet i.p. osmotic pump, Durect Corp., Cupertino, Calif.) of 2-{[3,5-bis(trifluoromethyl)phenyl]carbamoyl}-4-chlorophenyl phosphate bis ethanolamine salt (n=5 mice/time point, mean±SEM) (FIG. 9). […] Samples are analyzed by tandem LC-MS/MS using C18 reversed-phase chromatography and mass analysis with a triple-quadrapole mass spectrometer.
Setting [17] is: solid state, freeze dried salts.

T5 sequence (P55087 23-323, species assumed): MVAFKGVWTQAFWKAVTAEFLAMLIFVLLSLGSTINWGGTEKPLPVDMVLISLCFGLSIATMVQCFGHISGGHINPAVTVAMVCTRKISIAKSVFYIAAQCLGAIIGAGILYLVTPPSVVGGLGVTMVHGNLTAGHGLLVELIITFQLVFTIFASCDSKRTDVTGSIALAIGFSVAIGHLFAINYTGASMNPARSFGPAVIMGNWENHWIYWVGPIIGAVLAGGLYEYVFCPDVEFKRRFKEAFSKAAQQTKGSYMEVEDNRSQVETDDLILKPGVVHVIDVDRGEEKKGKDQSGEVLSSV
T4 sequence (P55064 whole entry, species assumed): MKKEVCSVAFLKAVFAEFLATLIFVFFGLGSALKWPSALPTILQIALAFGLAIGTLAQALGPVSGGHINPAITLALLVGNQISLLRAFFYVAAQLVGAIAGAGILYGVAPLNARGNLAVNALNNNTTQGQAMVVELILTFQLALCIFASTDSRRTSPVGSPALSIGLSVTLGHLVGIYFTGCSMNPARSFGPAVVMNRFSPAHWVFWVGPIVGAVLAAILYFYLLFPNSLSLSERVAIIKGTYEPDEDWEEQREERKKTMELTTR
T1 sequence (P55087 23-323 limits assumed): as the sequence (P55087 23-323, species assumed) above
Sequence of purified AQP4b (P55087 23-323): as the sequence (P55087 23-323, species assumed) above

For the compound `O=C(Nc1cc(C(F)(F)F)cc(C(F)(F)F)c1)c1cc(Cl)ccc1OP(=O)(O)O`, the “stability at RT” value in data set [1] is “stable at RT for a week or more”. The compound further had a solubility in data set [2] (pH 7, aqueous buffer) of 5000 µg/mL (≈ 10.8 mM).

Take `O=C(Nc1cc(C(F)(F)F)cc(C(F)(F)F)c1)c1cc(Cl)ccc1O` [Compound 1, N-(3,5-bis(trifluoromethyl)phenyl)-5-chloro-2-hydroxybenzamide]: the solubility in water in data set [2] (water) came out at 3.8 µg/mL (≈ 0.0099 mM). Further, in [3], the “improvement of percent survival” value is given as 3.2 fold and the “improvement of time to 50% survival” value is reported as “roughly 52 min”. In addition, the “extent of CE during the period of observation” value in data set [4] (0.76 mg/kg) is “reduced”. In addition, the “reduction of rate of CE development” value in data set [4] (0.76 mg/kg, from 0.081 to 0.032 min^−1) was 2.5 fold. In addition, in data set [4] (mouse water toxicity model, 0.76 mg/kg IP, LC-MS/MS), the plasma levels is 0.03 to 0.06 µg.

`O=C(Nc1cc(Cl)cc(Cl)c1)c1cc(Cl)ccc1O` [Compound 3, 5-chloro-N-(3,5-dichlorophenyl)-2-hydroxybenzamide]: in [5], the inhibition at 10 µM amounted to 55%. In addition, the “inhibition of water permeability” value in data set [6] was “inhibits”; in data set [7], “inhibits”; in data set [8], “poorly inhibits”; in data set [9] it was “poorly inhibits”.

Regarding `O=C(Nc1cc(C(F)(F)F)cc(C(F)(F)F)c1)c1cc(C(F)(F)F)ccc1O` [Compound 4, N-(3,5-bis(trifluoromethyl)phenyl)-2-hydroxy-5-(trifluoromethyl)benzamide], in data set [10], the “AQP Inhibition Cell-Based Assay (%)” value is on record as 38.9%. The “binding to solubilized AQP4b” value in data set [11] is “relatively weak binding”.

`O=C(Nc1cc(C(F)(F)F)cc(C(F)(F)F)c1)c1cc(Cl)ccc1OP(=O)([O-])[O-].[Na+].[Na+]` [Compound 5]: in [1] (setting [17]), the “hydrolysis in the solid state” value is listed as “about 1 % per day”. Besides, the “longer term hydrolysis in solution” value in data set [1] (solution, RT, longer term) is reported as “about 1 % per day”. In [2], the solubility in water is 1000 µg/mL and the “final pH of solutions” value is on record as ~9.5. The solubility in data set [2] (water) was ~10000 µg/mL. In [12], the “improvement in overall survival” value is listed as 29.4%. Besides, the average neurological score in [13] (5 point scale, control 2.77±0.66) is recorded as 0.88±0.31. Further, in data set [13] (mouse, in vivo), the “progression of neurological state” value was “did not progress into a state of severe paralysis or death”. In [14] (24 hours after MCAo, 5 mg/kg i.p. every three hours, ±SEM, control 13.4%), the “relative change in ipsilateral hemispheric brain volume” value is 4.2±1.7%. Further, the “reduction in brain swelling after MCAo” value in data set [14] (vs saline control) worked out at 3.2 fold.

Regarding `O=C(Nc1ccccc1)c1ccccc1` [Phenylbenzamide, reference compound], the “AQP Inhibition Cell-Based Assay (%)” value in data set [10] turned out to be 4.5%.

Consider `O=C(Nc1cc(C(F)(F)F)cc(C(F)(F)F)c1)c1cc(Cl)ccc1OP(=O)(O)O` [bis ethanolamine salt], for which, in data set [1], the “hydrolysis in the solid state” value is on record as “about 1 % per day” and the “longer term hydrolysis in solution” value is “about 1 % per day”. The solubility in [2] (water) was ~10000 µg/mL. In data set [15], the “time to render prodrug undetectable” value is listed as “Less than 5 minutes”. In addition, in [16], the “bioavailability and conversion to Compound 1” value is “good bioavailability and near-complete conversion”; the “prodrug salt in plasma samples” value is recorded as “undetectable”.

On to `NCCO.O=C(Nc1cc(C(F)(F)F)cc(C(F)(F)F)c1)c1cc(Cl)ccc1OP(=O)(O)O` [mono ethanolamine salt], for which the hydrolysis result in [1] (after 5 days at RT) is listed as “about 1%”. Moreover, the solubility in data set [2] (water) was ~5000 µg/mL.

Consider `O=C(Nc1cc(C(F)(F)F)cc(C(F)(F)F)c1)c1cc(Cl)ccc1OP(=O)([O-])O.[Na+]` [mono sodium salt], for which, in data set [1] (setting [17]), the “hydrolysis in the solid state” value was “about 1 % per day”. Besides, the “longer term hydrolysis in solution” value in [1] (solution, RT, longer term) is reported as “about 1 % per day”. In addition, the “final pH of solutions” value in [2] is ~8.5. The solubility in data set [2] (water) is ~5000 µg/mL.
